# Reference: patent US11944613B2, “CYP2J2 antagonists in the treatment of pain” (FRAUNHOFER-GESELLSCHAFT ZUR FÖRDERUNG DER ANGEWANDTEN …, priority 2014, dated 2024)
# Counter-ions that a name gives are not always drawn.
# Experiments:
# [1] = target: T1, CYP3A4 (Homo sapiens, UniProt P08684); assay: in vitro
# [2] = target: T2, CYP2J2 (Homo sapiens, UniProt P51589); assay: CYP2J2 P450-Glo luciferase assay (FDA Approved Drug Library screen); conditions: read-out: Average inhibition CYP2J2 (%)
# T2 sequence (P51589 1-502): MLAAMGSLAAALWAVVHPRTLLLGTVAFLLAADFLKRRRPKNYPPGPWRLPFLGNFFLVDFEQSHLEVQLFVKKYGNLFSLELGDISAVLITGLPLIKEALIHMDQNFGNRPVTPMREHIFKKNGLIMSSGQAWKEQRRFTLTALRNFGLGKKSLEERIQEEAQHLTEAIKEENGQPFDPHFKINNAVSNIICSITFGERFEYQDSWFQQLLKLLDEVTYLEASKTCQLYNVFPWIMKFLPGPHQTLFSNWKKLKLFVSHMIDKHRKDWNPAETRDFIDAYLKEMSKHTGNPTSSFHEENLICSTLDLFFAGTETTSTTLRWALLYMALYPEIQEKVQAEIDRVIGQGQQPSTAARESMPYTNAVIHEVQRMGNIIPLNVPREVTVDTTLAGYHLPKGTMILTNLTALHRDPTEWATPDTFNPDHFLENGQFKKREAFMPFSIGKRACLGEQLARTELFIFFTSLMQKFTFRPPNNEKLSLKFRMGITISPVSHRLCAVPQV
# [3] = target: TRPV1 (Mus musculus, UniProt Q704Y3); assay: Calcium imaging: TRPV1 sensitization, double capsaicin stimulation of DRG neurons; conditions: inhibitor 10 μM, preincubation 1 h; 9,10-EpOME 1 μM
# [4] = target: T1, CYP3A4; assay: CYP3A4 P450-Glo luciferase assay (unselective control)
# [5] = tested on: wild type BL/6N mice; assay: Thermal and mechanical thresholds after intraplantar or intrathecal 9,10-EpOME; type: in vivo, mouse
# Experimental: FIG. 5: Intraplantar or intrathecal injection of 9,10-EpOME reduces pain thresholds and sensitizes capsaicin induced mechanical thresholds in wild type mice. (a) and (b) C57B1/6N mice received an intraplantar injection of 9,10-EpOME (10 μM) or vehicle (DMSO 0.3% (v/v) in saline). Thermal (a) or mechanical (b) thresholds were monitored for 5 h post injection. Data represents mean ±SEM from eight mice. (c) and (d) Wild type BL/6N mice were injected intrathecally with 9,10-EpOME (10 μM) or vehicle (DMSO 0.3% (v/v) in saline). Thermal (c) or mechanical (d) thresholds were monitored for 2 h (thermal) or 3 h (mechanical) post injection with 15 minute intervals for the first hour and 30 minute intervals for the second hour. Data represents mean ±SEM from eight mice. Die Abbildungen sind nicht mitgeliefert
# For the determination of mechanical allodynia or thermal hypersensitivity, mice were kept in test cages on an elevated grid for at least 2 h to allow accommodation. Baseline measurements were performed using a Dynamic Plantar Aesthesiometer or a Hargreaves Apparatus (Ugo Basile, Comerio, VA, Italy) detecting withdrawal latency of the hind paws after mechanical stimulation. For the assessment of the mechanical thresholds, the steel rod was pushed against the mid-plantar hind paw with linear ascending force (0-5 g over 10 seconds, increasing 0.5 g/s) until a fast withdrawal response occurred. Slow movements of the paw were not counted. Paw withdrawal latencies (PWL) were determined in seconds (s) ±0.1 with a cut-off time of 20 s. The non-injected and injected paws were measured alternately in intervals of 5-10 min. For determination of thermal thresholds, mice were kept in test cages on a warmed glass plate (32° C.) for at least 2 h on the first day to allow accommodation. Then, the mid-plantar region of the paws was stimulated with a radiant heat device, consisting of a high intensity projector lamp, until withdrawal occurred. The non-injected and injected paws were measured alternately in intervals of 5-10 min. For all behavioral tests the investigator was blinded for treatment or genotype of the mice.
# Treatments: For peripheral injections, 20 μl of 9,10-EpOME [5 μM] (Cayman, Ann Arbor, MI, USA) were injected subcutaneously (s.c.) in the mid-plantar area of the hind paw. […]
# The inventors then tested the Galphas-coupled prostanoid receptors for their potential involvement in 9,10-EpOME dependent TRPV1 sensitization in calcium imaging experiments. […] To characterize in vivo effects of 9,10-EpOME, the inventors injected the lipid in hind paws of wild type BL/6N mice and measured the thermal (FIG. 5A) and mechanical thresholds (FIG. 5B) up to 5 h post injection. […] The inventors then injected 9,10-EpOME intrathecally and measured thermal and mechanical thresholds in short time intervals. […]
# [6] = target: T3, CYP2J6 (Mus musculus, UniProt O54750); assay: LC-MS/MS epoxylipid levels in tissues of paclitaxel treated mice after terfenadine; type: in vivo
# T3 construct: the inventors dissected the sciatic nerve, DRGs and the dorsal spinal cord and quantified epoxylipids in these tissues; from tissue; host or cells: sciatic nerve, DRGs, dorsal spinal cord and plasma of paclitaxel-treated C57BL/6N mice
# T3 sequence (O54750 1-501): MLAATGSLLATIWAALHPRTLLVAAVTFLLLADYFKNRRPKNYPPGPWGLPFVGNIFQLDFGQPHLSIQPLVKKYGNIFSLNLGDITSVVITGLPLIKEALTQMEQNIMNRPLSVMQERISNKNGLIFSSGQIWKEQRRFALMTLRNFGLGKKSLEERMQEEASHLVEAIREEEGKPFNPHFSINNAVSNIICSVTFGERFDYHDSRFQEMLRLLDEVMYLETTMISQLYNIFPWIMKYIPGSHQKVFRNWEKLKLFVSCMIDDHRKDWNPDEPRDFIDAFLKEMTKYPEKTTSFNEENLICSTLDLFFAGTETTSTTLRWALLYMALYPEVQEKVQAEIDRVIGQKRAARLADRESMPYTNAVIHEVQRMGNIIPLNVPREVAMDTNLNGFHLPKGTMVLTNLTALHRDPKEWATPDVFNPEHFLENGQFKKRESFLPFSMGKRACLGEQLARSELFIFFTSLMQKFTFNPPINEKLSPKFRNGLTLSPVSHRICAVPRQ
# Experimental: (b) Remaining concentrations of all measured epoxylipids and dihydro-metabolites (9,10-EpOME, 12,13-EpOME, 9,10-DiHOME, 12,13-DiHOME and 14,15-EET) in sciatic nerve, DRGs, dorsal horn of the spinal cord and plasma after administration of terfenadine (1 mg·kg-1).
# Sample extraction and standards: Sample extraction was performed as described previously. Briefly, stock solutions with 2500 ng/ml of all analytes were prepared in methanol. Working standards were obtained by further dilution with a concentration range of 0.1-250 ng/ml for EETs, EpOMEs and DiHOMEs and HODEs Sample extraction was performed with liquid-liquid-extraction. Therefore tissue or cell culture medium was extracted twice with 600 μl ethyl acetate. The combined organic phases were removed at a temperature of 45° C. under a gentle stream of nitrogen. The residues were reconstituted with 50 μl of methanol/water/(50:50, v/v), centrifuged for 2 min at 10,000×g and then transferred to glass vials (Macherey-Nagel, Düren, Germany) prior to injection into the LC-MS/MS system.
# Instrumentation for measuring epoxylipids and HODEs: The LC-MS/MS system consisted of an API 4000 triple quadrupole mass spectrometer (Applied Biosystems, Darmstadt, Germany), equipped with a Turbo-V-source operating in negative ESI mode, an Agilent 1100 binary HPLC pump and degasser (Agilent, Waldbronn, Germany) and an HTC Pal autosampler (Chromtech, Idstein, Germany) fitted with a 25 μL LEAP syringe (Axel Semrau GmbH, Sprockhövel, Germany). High purity nitrogen for the mass spectrometer was produced by a NGM 22-LC-MS nitrogen generator (cmc Instruments, Eschborn, Germany). […] Quantification was performed with Analyst Software V 1.4.2 (Applied Biosystems, Darmstadt, Germany) employing the internal standard method (isotope-dilution mass spectrometry). Ratios of analyte peak area and internal standard area (y-axis) were plotted against concentration (x-axis) and calibration curves were calculated by least square regression with 1/concentration2 weighting.
# [7] = tested on: paclitaxel-induced CIPNP in mice
# Experimental: (a) Levels of 9,10-EpOME shown in % of control determined by LC-MS/MS in sciatic nerves, DRGs and the dorsal horn of the spinal cord eight days after treatment with paclitaxel (6 mg·kg-1 i.p. and 1 mg·kg-1 terfenadine (grey) or vehicle (2% DMSO v/v, black)) Data represents mean ±SEM from the DRGs of five mice per group; *p<0.05, **p<0.01, student's t-test. (b) Remaining concentrations of all measured epoxylipids and dihydro-metabolites (9,10-EpOME, 12,13-EpOME, 9,10-DiHOME, 12,13-DiHOME and 14,15-EET) in sciatic nerve, DRGs, dorsal horn of the spinal cord and plasma after administration of terfenadine (1 mg·kg-1). (c) Mechanical thresholds of mice treated with paclitaxel for eight days (6 mg·kg-1 i.p.) that received an intravenous injection of terfenadine (1 or 2 mg kg-1) or vehicle (DMSO 2.5 or 5% (v/v)). The mechanical thresholds were monitored up to 5 h after injection of terfenadine or vehicle. Data represent mean ±SEM from 8-9 mice per group; #, *p<0.05, two-way ANOVA with Bonferroni post hoc test (*1 mg kg-1, #2 mg kg-1 terfenadine). […] Data represent mean ±SEM from 6-9 mice per group.
# Paclitaxel was solved in Cremophor EL/Ethanol 1:1 and diluted in saline. The dose for intraperitoneal injection was set to 6 mg/kg as described previously.
# For the determination of mechanical allodynia or thermal hypersensitivity, mice were kept in test cages on an elevated grid for at least 2 h to allow accommodation. Baseline measurements were performed using a Dynamic Plantar Aesthesiometer or a Hargreaves Apparatus (Ugo Basile, Comerio, VA, Italy) detecting withdrawal latency of the hind paws after mechanical stimulation. […] Slow movements of the paw were not counted. Paw withdrawal latencies (PWL) were determined in seconds (s) ±0.1 with a cut-off time of 20 s. The non-injected and injected paws were measured alternately in intervals of 5-10 min. […] The non-injected and injected paws were measured alternately in intervals of 5-10 min. […]
# [8] = tested on: DRG neurons; assay: Calcium imaging: 9,10-EpOME-evoked calcium transients in DRG neurons; type: cell-based, mouse; conditions: 9,10-EpOME 10 μM, 30 s; antagonist pre-incubated two minutes; AMG 9810 1 μM, HC-030031 20 μM
# Experimental: FIG. 2: Direct effects of 9,10-EpOME on DRG-neurons. (a) Application of 9,10-EpOME [10 μM, 30 s] causes calcium transients on DRG neurons which respond to high potassium (50 mM KCl, 30 s). A representative trace is shown. (b) Dose response relationship of 9,10-EpOME dependent calcium increases in DRG neurons related to the number of responding neurons Data represents the mean ±SEM of five measurements per concentration. (c) and (d) Calcium transients caused by 9,10-EpOME [10 μM, 30 s] can be disrupted using calcium-free medium containing EGTA (2 mM) washed in 2 minutes before and after 9,10-EpOME stimulation. Data represents the mean ±SEM of 24 (calcium-free) or 16 (control) neurons. (e) and (f) Calcium transients of 9,10-EpOME [10 μM, 30 s] can be blocked by a selective TRPV1 antagonist (AMG 9810, 1 μM) but not by a selective TRPA1 antagonist (HC-030031, 20 μM) washed in for two minutes prior to the second 9,10-EpOME stimulation. Data represents the mean ±SEM of 16 (control), 31 (AMG 9810) or 18 (HC-030031) neurons; **p<0.01, student's t-test.
# Next, the inventors characterized 9,10-EpOME concerning its effects on DRG-neurons in calcium imaging experiments. […]
# [9] = tested on: lamina II neurons of spinal cord slices; assay: sEPSC recordings in lamina II neurons of spinal cord slices; type: cell-based
# Experimental: (d) Frequency of sEPSCs. […] (E) Amplitude of sEPSCs. […] To confirm the effect of TRPV1 sensitization by 9,10-EpOME with electrophysiological means, the inventors measured sEPSCs from lamina II neurons of spinal cord slices using two capsaicin stimulations [1 μM] and incubating the cells prior to the second capsaicin stimulus with 9,10-EpOME [1 μM] (FIG. 3C). […] In combination with capsaicin, however, the sEPSC frequency was strongly potentiated (FIG. 3D). However, no difference in the amplitude of sEPSCs could be observed with either 9,10-EpOME, […] or the combination of both substances (FIG. 3E).
# [10] = intraplantar injection in hind paws
# T1 sequence (P08684 whole entry): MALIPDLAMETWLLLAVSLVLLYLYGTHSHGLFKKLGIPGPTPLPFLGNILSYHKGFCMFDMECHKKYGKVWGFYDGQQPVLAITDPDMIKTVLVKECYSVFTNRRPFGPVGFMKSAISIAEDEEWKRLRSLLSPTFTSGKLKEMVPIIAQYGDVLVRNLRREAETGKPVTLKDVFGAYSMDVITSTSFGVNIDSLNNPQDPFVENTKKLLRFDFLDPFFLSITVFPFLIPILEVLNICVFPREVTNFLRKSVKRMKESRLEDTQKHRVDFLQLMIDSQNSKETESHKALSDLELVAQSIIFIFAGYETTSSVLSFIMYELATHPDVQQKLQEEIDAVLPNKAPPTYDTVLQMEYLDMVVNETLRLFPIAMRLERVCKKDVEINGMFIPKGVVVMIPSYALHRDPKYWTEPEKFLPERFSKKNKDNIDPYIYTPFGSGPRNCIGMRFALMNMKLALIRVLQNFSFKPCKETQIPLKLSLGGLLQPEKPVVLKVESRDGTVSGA
# Chain of TRPV1 (Q704Y3 whole entry): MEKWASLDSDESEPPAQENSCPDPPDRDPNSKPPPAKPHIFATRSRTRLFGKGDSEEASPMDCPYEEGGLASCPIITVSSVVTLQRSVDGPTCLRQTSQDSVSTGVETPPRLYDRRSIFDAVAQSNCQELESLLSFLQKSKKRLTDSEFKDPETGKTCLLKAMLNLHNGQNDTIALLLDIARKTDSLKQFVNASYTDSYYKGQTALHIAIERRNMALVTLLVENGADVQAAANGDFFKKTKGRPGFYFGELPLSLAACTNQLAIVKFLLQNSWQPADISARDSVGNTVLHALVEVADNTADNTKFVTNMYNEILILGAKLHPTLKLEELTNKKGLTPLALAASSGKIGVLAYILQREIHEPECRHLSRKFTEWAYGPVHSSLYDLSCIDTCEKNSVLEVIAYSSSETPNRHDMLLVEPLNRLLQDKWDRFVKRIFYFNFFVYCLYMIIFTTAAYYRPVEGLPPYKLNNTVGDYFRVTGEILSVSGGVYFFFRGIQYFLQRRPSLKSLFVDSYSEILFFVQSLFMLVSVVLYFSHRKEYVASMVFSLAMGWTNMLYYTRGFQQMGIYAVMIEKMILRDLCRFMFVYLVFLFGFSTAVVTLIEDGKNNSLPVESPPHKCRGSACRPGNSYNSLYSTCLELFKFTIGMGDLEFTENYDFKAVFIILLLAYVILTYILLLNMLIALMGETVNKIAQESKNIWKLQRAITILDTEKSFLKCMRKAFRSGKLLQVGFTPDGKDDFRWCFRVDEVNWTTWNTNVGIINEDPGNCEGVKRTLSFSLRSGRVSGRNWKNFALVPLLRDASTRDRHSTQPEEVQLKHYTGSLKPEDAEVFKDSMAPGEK
Structure (SMILES),"inhibition at 30 min, 10 μM [1]",inhibition at 10 µM [2],also measured
"CC(C)/N=c1\cc2n(-c3ccc(Cl)cc3)c3ccccc3nc-2cc1Nc1ccc(Cl)cc1 [c516, Clofazimine]",-82.9%,79.1%,–
CN(C)CCCn1cc(C2=C(c3c[nH]c4ccccc34)C(=O)NC2=O)c2ccccc21,–,–,"effect of kinase inhibitor on 9,10-EpOME-evoked TRPV1 sensitization [3]: did not have any effect"
"CC(COc1ccccc1)N(CCCl)Cc1ccccc1 (stereo not shown) [c089, Phenoxybenzamine•HCl]",–,75%,"inhibition at 30 min, 10 μM [4]: 17.9%"
Cl.Cl.O=S(=O)(NCCNC/C=C/c1ccc(Br)cc1)c1cccc2cnccc12 [H89 dihydrochloride],–,–,"effect of kinase inhibitor on 9,10-EpOME-evoked TRPV1 sensitization [3]: significant reduction"
"CCCCC/C=C\CC1OC1CCCCCCCC(=O)O (stereo not shown) [9,10-EpOME, 9,10-epoxy-12Z-octadecenoic acid]",–,–,"duration of significant reduction of mechanical thresholds [5, 10]: 2 h; duration of significant reduction of thermal thresholds [5, 10]: 1 h; duration of decrease of mechanical thresholds ([5]; intrathecal injection): up to 1.5 h; thermal thresholds ([5]; intrathecal injection, 30 minutes after i.th. injection): significant but rather weak reduction"
CC(C)(C)c1ccc(C(O)CCCN2CCC(C(O)(c3ccccc3)c3ccccc3)CC2)cc1 (stereo not shown) [Terfenadine],–,–,"remaining concentrations of all measured epoxylipids in DRGs, spinal dorsal horn and plasma ([6]; 1 mg·kg-1 i.v.): reduced significantly; 9,10-EpOME concentrations in sciatic nerve, DRGs and dorsal spinal cord ([6]; 1 mg·kg-1 i.v., two hours, eight days after paclitaxel): significant reduction; levels of epoxylipids reduced to ([6]; terfenadine treatment): about 50%; duration of increase in mechanical thresholds ([7]; 1 or 2 mg·kg-1 i.v., eight days after paclitaxel): 2 h; difference between the two doses in mechanical thresholds ([7]; 1 versus 2 mg·kg-1 i.v.): no significant differences; mechanical thresholds of paclitaxel treated mice ([7]; terfenadine 1 or 2 mg·kg-1 i.v., loratadine 1 mg kg-1 i.v., eight days after paclitaxel): significant increase"
CC(C)(C)c1ccc(/C=C/C(=O)Nc2ccc3c(c2)OCCO3)cc1 [AMG 9810],–,–,"block of the second 9,10-EpOME-evoked calcium transient [8]: could block"
COc1cc(CNC(=O)CCCC/C=C/C(C)C)ccc1O [capsaicin],–,–,"frequency of sEPSCs, substance alone ([9]; 1 mM as printed in legend, baseline 6.9±0.4 Hz, n=5 neurons): 13.7±0.4 Hz; amplitude of sEPSCs ([9]; n=5 neurons/group): no significant effects"
CC(C)c1ccc(NC(=O)Cn2cnc3c2c(=O)n(C)c(=O)n3C)cc1 [HC-030031],–,–,"block of the second 9,10-EpOME-evoked calcium transient [8]: but not the TRPA1 antagonist HC-030031 could block"

# The next lines start with results.
"inhibition at 30 min, 10 μM [1]",inhibition at 10 µM [2],Structure (SMILES),also measured
-4.3%,78.2%,"CCC(=O)O[C@]1(C(=O)CCl)[C@@H](C)C[C@H]2[C@@H]3CCC4=CC(=O)C=C[C@]4(C)[C@@]3(F)[C@@H](O)C[C@@]21C [c146, Clobetasol Propionate]",–
5.1%,64%,"C#C[C@]1(O)CC[C@H]2[C@@H]3CCC4=CC(=O)CC[C@@H]4[C@H]3CC[C@@]21CC [c314, Levonorgestrel]",–
-26.2%,78%,"CC(C)OC(=O)C(C)(C)Oc1ccc(C(=O)c2ccc(Cl)cc2)cc1 [c246, Fenofibrate]",–
14%,81.8%,"Cc1[nH]cnc1CN1CCc2c(c3ccccc3n2C)C1=O [c595, Alosetron•HCl]",–
12.1%,84.4%,"C[C@]12CC[C@@H]3c4ccc(O)cc4CC[C@H]3[C@@H]1CC[C@@H]2O [c054, Estradiol]",–
-18.5%,76.8%,"CC1(C)O[C@@H]2C[C@H]3[C@@H]4CCC5=CC(=O)CC[C@]5(C)[C@@]4(F)[C@@H](O)C[C@]3(C)[C@]2(C(=O)CCl)O1 [c440, Halcinonide]",–
17.4%,71.5%,"Cc1cccc(CN2CCN(C(c3ccccc3)c3ccc(Cl)cc3)CC2)c1 (stereo not shown) [c608, Meclizine Dihydrochloride]",–
